Tests used:
[1] = Preliminary uptake studies by HPLC and fluorescence microscopy
[2] = tested on: stenosis in a canine model of prosthetic AV access graft; experiment: PDT in a canine model of prosthetic AV access graft; assay type: in vivo, female mongrel dogs
Method: The work described below was undertaken to evaluate the effects of application of an embodiment of the method of the present invention on the suppression of stenosis in a canine model of prosthetic AV access graft.
Initial studies using light-treatment without MV6401 confirmed no effect on the stenosis. Bilateral femoral PTFE AV access grafts were implanted in four female mongrel dogs. MV6401 (2 mg/kg, IV) was given one hour prior to the operation, and PDT was administered using an endolumenal non-thermal balloon catheter light source immediately after AV access graft placement. The contralateral side received a sham balloon treatment without light activation. The animals were sacrificed four weeks after the treatment, at which time the grafts were harvested, sectioned and examined by histology. Venous anastomotic sites were graded by an individual blinded to the treatment parameters and graded on a categorical scale (0-5) of lesion progression. Thickness of the stenotic lesion was determined using computer morphometry.

For `C=Cc1c(C)c2[n]3c1=CC1=NC(=Cc4c(C)c5c([n]4[In]3[Cl])C(=C3N=C(C=2)[C@@H](C)[C@@H]3CCC(=O)OC)CC5=O)C(CC)=C1C` [MV6401], the “incorporation of drug into tissue” value [1] was “incorporation into stenotic lesions and surrounding vessel wall”, the “graft fibrosis grade at venous anastomotic site (categorical scale 0-5)” value ([2]; MV6401 2 mg/kg IV 1 h before operation, endolumenal balloon light, 4 weeks after treatment, sham side without light 2.25±0.08, P=0.02) was 1.13±0.15 and the “thickness of the stenotic lesions at the venous anastomosis” value ([2]; MV6401 2 mg/kg IV plus light, 4 weeks after PDT, computer morphometry, sham side without light 1.51±0.11 mm, P=0.006) was 0.49±0.06 mm. For the same compound, the “long term detrimental effects” value ([2]; PDT dose sufficient to substantially deplete cell population in vessel wall) was “no detrimental long term effects noted”, the “acellularity in the vessel wall” value ([2]; PDT dose used (MV6401 2 mg/kg IV plus light)) was “substantial acellularity in the vessel wall” and the “AV access graft patency” value ([2]; four weeks after treatment) was “patent and fully functioning”.

From patent US6783541B2, “Methods for inhibiting or suppressing stenosis of arteriovenous access fistulas and grafts” (Miravant Medical Technologies, Inc., priority 2001, dated 2004)
